Reference: US20190017026A1, “METHOD AND DEVICE FOR CONSERVING VIABLE AND FUNCTIONAL HUMAN POLYMORPHONUCLEAR NEUTROPHILS” (INSTITUT PASTEUR, priority 2014, published 2019)
“Also recorded” adds a separate entry of the source. Counter-ions that a name gives are not always drawn.

What was measured:
[1] = test system: human neutrophils; assay: Neutrophil survival rate by flow cytometry (Annexin V-/PI-) upon storage; format: cell-based; details: for neutrophil survival rate (Annexin V-/PI-): 3 mM glucose, 32 μg/mL DMOG
Description: Neutrophils fractions with a >95% purity obtained by applying Method 1 or Method 2 were resuspended at a 5×10^6 cells/mL concentration in RPMI 1640 with L Glutamine and 25 mM Hepes (Gibco, Life Technologies), 10% of heat inactivated Foetal Bovine Serum (FBS) (Invitrogen, Gibco) and indicated concentrations of glucose (Sigma-Aldrich) and Dimethyloxalylglycine or DMOG (Cayman Chemical Company). For comparative experiments aiming at characterizing the role of oxygen on neutrophils survival, purified neutrophils (Method 1 or Method 2) were split in two identical fractions. One was stored at 37° C. with 5% CO2 under atmospheric conditions (20% O2 condition, +O2). The second one was stored at 37° C. in an anoxic chamber ([…], Don […]) under an atmosphere containing 90% N2, 5% CO2 and 5% H2 (0% O2 condition, -O2), during indicated time. Cell viability. For neutrophil survival analysis, human neutrophils (1×10^6) were washed twice in PBS and then resuspended in 1 ml of Annexin V binding Buffer. A 100 μl sample (1×10^5 cells) was stained with 5 μl of APC-Annexin V and 5 μl of Propidium iodide (PI) (0.5 μg/ml final concentration) as recommended by the manufacturer. At least 10^4 events were acquired for each condition on a FACSCaliburTM flow cytometer (BD Biosciences), and data were analyzed using CellQuestTM Pro Software (BD Biosciences). Viable cells were defined as Annexin V-/PI- quantifications. In this study, neutrophil survival rate was evaluated in various conditions by flow cytometry, by quantifying the proportion of viable (propidium iodide negative staining, PI-) and non-apoptotic (Annexin V negative staining, Annexin V-) cells.

[2] = test system: neutrophils; details: normoxic conditions; cited from earlier work

COC(=O)CNC(=O)C(=O)OC [DMOG, Dimethyloxalylglycine]
neutrophil survival rate (Annexin V-/PI-) ([1]; citrate (Method 2), anoxia, 20 h): 70±8%
neutrophil survival rate (Annexin V-/PI-) ([1]; citrate (Method 2), anoxia, 48 h): 49±2%
neutrophil survival rate (Annexin V-/PI-) ([1]; heparin (Method 1), absence of oxygen, 20 h storage): 54+10%
neutrophil survival rate (Annexin V-/PI-) ([1]; heparin (Method 1), absence of oxygen, 48 h storage): 14+10%
effect on neutrophil apoptosis [2]: decreases apoptosis

O=C(O)CN(CCN(CC(=O)O)CC(=O)O)CC(=O)O [EDTA]
neutrophils survival as compared to citrate at blood collection ([1]; blood collected with EDTA instead of citrate): even better results

O=C(O)CC(O)(CC(=O)O)C(=O)O [citrate, sodium citrate]
neutrophils survival rate as compared to heparin as anticoagulant ([1]; blood collected with citrate, presence or absence of oxygen, 20 h and 48 h post purification): significant increase of neutrophils survival rate; also recorded: improved
